“And” between values parts separate entries of the source, which are not always exact repeats. Identical values can stand only once.

We go through three substances from patent publication US10711040B2, “Low substituted polymyxins and compositions thereof” (priority 2014, dated 2020).

Data set [1] has as its system KIM-1 (kidney injury molecule-1). The data set is described as follows: Nephrotoxicity in mice, urinary KIM-1 by ELISA. The settings on record: 80 mg/kg subcutaneously once a day for 5 days; individual mice. It is filed as in vivo. The procedure: Nephrotoxicity was measured using KIM-1 (kidney injury molecule-1) as a biomarker of acute tubular necrosis.
(§1) Mice were treated with a mixture comprising 93% mono(N^γ-bis-sulfomethyl) Polymyxin E1 or CMS for 5 days and were monitored for clinical signs of toxicity and urine concentrations of KIM-1. […] The normal range of KIM-1 in mouse urine, as stated in the ELISA kit instruction, is 456-8048 pg/ml.
(§2) The mixtures were received as dry powder and were dissolved in the vials in sterile saline to the concentration stated in table 1, immediately prior to injection.
(§3) Once a day for 5 days, mice were treated subcutaneously in the neck region with 0.2 ml corresponding to the doses stated in Table 1. The dosing was based on a mean weight of 28 g.
Urine samples were collected at 24 hrs after the 2nd dosing and 4 hrs after the 5th dosing. Samples were stored at −80° C. until analysed for KIM-1 concentrations
Urine samples were thawed, centrifuged for 5 min at 2000 g and diluted ×50 prior to performing the ELISA according the instruction in the Quantikine ELISA mouse TIM-1/KIM-1/HAVCR Immunoassay kit.
For orientation: ELISA stands for enzyme-linked immunosorbent assay.

A short description of data set [2]: Tolerability in mice: clinical signs of toxicity, body weight, clinical scoring. The settings on record: mouse, in vivo. The procedure:
as §1, §2, §3
All the tested mixtures were well tolerated by mice as determined by body weight and clinical scoring.

Data set [3] relates to Pseudomonas aeruginosa (strain PAX11045). Put plainly: Mouse model with pulmonary infection of Pseudomonas aeruginosa. The format is in vivo. More on the design: key to Clinical score at T = 19 / Clinical score at T = 22: 0: healthy; 1: minor clinical signs of infection and inflammation like piloerection in the skin, distress and social withdrawal; 2: moderate signs of infection like changed body position, changes in pattern of movement, lack of curiosity or changed activity.; 3: severe signs of infection like stiff movements, forced ventilation,; 4: severe pain, mouse was sacrificed immediately to minimize suffering; 5: The mouse was dead. Conditions: dose 10 mg/kg, peritoneal. The procedure: A mouse model with pulmonary infections of Pseudomonas aeruginosa (strain PAX11045) were treated with peritoneal administration of Polymyxin E1, CMS E1 and mono bis-sulfomethylated Polymyxin E1. CFU is the calculated number of colony forming units in the lung tissue after 22 hours except for the non-treatment group of mice.

For Gentamicin, the “Urinary KIM-1 concentrations after 5 doses” value in data set [1] is 12850 pg/mL and 5900 pg/mL and 5750 pg/mL.
Regarding Colistimethate sodium [CMS], the “clinical signs of toxicity” value in data set [2] is “no clinical signs of toxicity”.
As for Polymyxin E1 [Polymyxin-E1], in data set [3] (individual mice), the “Clinical score at T = 19” value is 3 (6×) and 2; the “Clinical score at T = 22” value was 4 (2×) and 2 and 3 (4×). In addition, the “mean log10 CFU” value in data set [3] (lung tissue after 22 hours) came out at 4.43 log10 CFU. Besides, the “log10 CFU lung” value in data set [3] (lung tissue after 22 hours, individual mice, 10 mg/kg) was 5.65 log10 CFU and 4.08 log10 CFU and 6.06 log10 CFU and 4.05 log10 CFU and 3.78 log10 CFU and 3.70 log10 CFU and 3.72 log10 CFU.
